From patent publication US20260315446A1, “ANTIFUNGAL COMPOUNDS AND USES THEREOF” (priority 2023, published 2026)

Legend:
[1] = test system: Aspergillus fumigatus (akuBKu80 hFKBP12); conditions: previously shown; cited from earlier work
C. neoformans strain H99 = assay: Murine cryptococcal infection, lung fungal burden (Example 3); type: in vivo, Cryptococcus neoformans in A/J mice; conditions: once daily; fluconazole 12 mg/kg, JH-FK-08 40 mg/kg
Description: In vivo antifungal activity and therapeutic benefit were assayed by investigating the impact of the FK520 analog on organ fungal burden during cryptococcosis. Specifically, the in vivo efficacy of JH-FK-08 on fungal burden was assessed using A/J female mice. Immunodeficient A/J mice were selected in part due to their defect in complement component five and their susceptibility to cryptococcal infection. Treatment groups included vehicle of 10% Kolliphor: ethanol (1:1) in phosphate-buffered saline (PBS), […], or the fluconazole and JH-FK-08 combination, […] infection. […] Mice were intranasally infected with C. neoformans strain H99, and fungal burden in the lung, spleen, and brain was assessed after 14 days of treatment.
C. neoformans inoculum was prepared by growing a 5-mL overnight YPD culture spinning in a tissue culture roller drum at 30° C. Cells were pelleted by centrifugation and washed in sterile PBS three times. Cell density was determined by hemocytometer, and cells were diluted to 2×10^6 cells/mL. Mice (10 to 20 g) were infected with 10^5 cells of C. neoformans H99. For inhalation infection, animals were anesthetized with isoflurane before 50 μL of inoculum was pipetted onto the upright nasal passages of each animal. Following inhalation of the inoculum, animals were monitored for post anesthesia recovery. Treatment of animals began 4 hours post infection and was continued for 14 days. Fungal burden was assessed 24 h after the final dose.
For survival curve analysis, animals were monitored until reaching defined humane end points, including social isolation, hunched posture, weight loss, lack of grooming, and labored breathing, and were then euthanized via CO2 inhalation. […] One hundred microliters of each dilution was plated on YPD plates supplemented with YPD 50 μg/mL ampicillin and 30 μg/mL chloramphenicol, incubated at 30° C. for 2 days, and assessed for colony-forming units. CFU per organ weight was calculated and plotted using GraphPad Prism 9.

C. neoformans H99 [2] = assay: Intravenous model of disseminated cryptococcosis, brain fungal burden (Example 1); type: in vivo, Cryptococcus neoformans in mice
Source text: The high in vitro antifungal activity of JH-FK-05 presented promising evidence that it might effectively reduce fungal burden in the context of murine infection. Two models of C. neoformans infection were employed to test this hypothesis (FIG. 7A). First, in the intranasal model, animals were anesthetized and infected with 10^5 cells of wild-type H99 C. neoformans via instillation in the animal's nares. These animals were monitored for 14 days and then sacrificed. This model tests the efficacy of JH-FK-05 to treat a pulmonary infection, which is the most common manifestation of early-stage cryptococcosis in patients. Second, the intravenous (i.v.) model approximates the disseminated stage of disease. […]
Wild-type H99 C. neoformans cells were grown overnight at 30° C. in a roller drum in yeast extract-peptone-dextrose (YPD) medium. […] H99 cells were counted with a hemacytometer and diluted to 2×10^6 cells/mL in PBS for the pulmonary model and 2×10^5 cells/mL in PBS for the disseminated model. […]
Mice were euthanized by CO2 inhalation at the predetermined experimental endpoint. […] A 100-μL aliquot of each dilution was plated on antibiotic plates (YPD, 50 μg/mL ampicillin, and 30 µg/mL chloramphenicol), incubated for 48 to 72 h at 30° C., and assessed for CFU. […] Statistical significance was calculated using an ordinary one-way analysis of variance (ANOVA) with Tukey's multiple-comparison test.

C. neoformans H99 [3] = assay: Survival in intranasal cryptococcosis model (Example 1); type: in vivo, Cryptococcus neoformans in A/J mice; conditions: 14 days treatment; JH-FK-05 60 mg/kg, fluconazole 12 mg/kg, i.p. daily
Description: To verify if this reduction seen in the fungal burdens of JH-FK-05 and combination-treated animals could translate into a meaningful therapeutic effect, the survival of animals infected via the intranasal route was assessed (FIG. 8A). As in the fungal burden model, these animals received daily treatment for only 14 days. Following the termination of treatment, animals were monitored for signs of decline, lethargy, and ultimately, moribundity. Untreated animals in this model typically survive for about 3 weeks, and similar results were observed here (vehicle treatment median survival, 22 days). Corroborating the results of the fungal burden study, a significant extension of survival for both JH-FK-05 (median survival, 26 days) and fluconazole (median survival, 25 days) was observed.
Female A/J mice (3 to 4 weeks old; Jackson Laboratory) were anesthetized utilizing an isoflurane chamber. While anesthetized, […] of 2×10^6 cells/mL suspension was dripped onto the nares of mice, allowing them to inhale the full inoculum. Treatment began 3 h following infection with i.p. dosing of vehicle, 60 mg/kg JH-FK-05, 12 mg/kg fluconazole, or combination. […] After 14 days, animals were either sacrificed for fungal burden analysis or monitored for health and survival until reaching a humane endpoint. […] Statistical significance was determined using log-rank (Mantel-Cox) tests.

C=CCC1C=C(C)CC(C)CC(OC)C2OC(O)(C(=O)C(=O)N3CCCCC3C(=O)OC(C(C)=CC3CCC(O)C(OC)C3)C(C)C(O)CC1=O)C(C)CC2OC (centres unmarked) [FK506, reference compound]
resistance of hFKBP12-expressing strain [1]: completely resistant

CC[C@@H]1/C=C(\C)C[C@H](C)C[C@H](OC)[C@H]2O[C@@](O)(C(=O)C(=O)N3CCCC[C@H]3C(=O)O[C@H](/C(C)=C/C3CC[C@@H](O)[C@H](OC)C3)[C@H](C)[C@@H](O)C/C1=N/NC(=O)OC)[C@H](C)C[C@@H]2OC (some centres unmarked) [JH-FK-08]
lung fungal burden reduction (C. neoformans strain H99): limited efficacy in reducing lung fungal burden

CC[C@@H]1/C=C(\C)C[C@H](C)C[C@H](OC)[C@H]2O[C@@](O)(C(=O)C(=O)N3CCCC[C@H]3C(=O)O[C@H](/C(C)=C/[C@@H]3CC[C@@H](O)[C@H](OC)C3)[C@H](C)[C@@H](O)C/C1=N/NC(C)=O)[C@H](C)C[C@@H]2OC [JH-FK-05]
reduction of brain fungal burden (C. neoformans H99 [2]; day 7, JH-FK-05 60 mg/kg, fluconazole 12 mg/kg, i.p. daily): 2 fold
blood-brain barrier crossing (C. neoformans H99 [2]; inferred from brain fungal burden): can cross the blood-brain barrier
median survival (C. neoformans H99 [3]): 26 days
